Source: article PMC2994776 (BMC Biochemistry, 2010)
Ends that are not written are not given here.

Columns and labels:
[1] = system: B9-23 - reactive T-cell clones; conditions: type 1 diabetes; cited from earlier work
DnaK = molecular target: T1, DnaK (Escherichia coli, UniProt P0A6Y8); test: Fluid phase competition binding assay with acrylodan-labeled NR peptide (a-NR); parameters: species or system bacterial; conditions: read-out: Apparent dissociation equilibrium constant (K'd)
T1 construct: made in house
Procedure: Determination of dissociation equilibrium constants
Peptide NR was labeled with the environmentally sensitive fluorophore acrylodan as described. […] After reaching equilibrium (~1.5 h), emission spectra were recorded from 400 nm to 600 nm (bandpass 4 nm) with a Perkin-Elmer spectrofluorimeter LS50B equipped with a stirrer and a thermostatically controlled cuvette holder. The excitation wavelength was set at 370 nm (bandpass 4 nm). Measurements were performed in a volume of 800 μl in 25 mM Hepes/KOH, 100 mM KCl, 10 mM MgCl2, pH 7.4 containing 1 mM DTT and 1 mM ADP-Pi at 25°C.
(1) ΔF=ΔFmaxxP/(P+Kdx(1+L/K'd))

T1 sequence (P0A6Y8 whole entry): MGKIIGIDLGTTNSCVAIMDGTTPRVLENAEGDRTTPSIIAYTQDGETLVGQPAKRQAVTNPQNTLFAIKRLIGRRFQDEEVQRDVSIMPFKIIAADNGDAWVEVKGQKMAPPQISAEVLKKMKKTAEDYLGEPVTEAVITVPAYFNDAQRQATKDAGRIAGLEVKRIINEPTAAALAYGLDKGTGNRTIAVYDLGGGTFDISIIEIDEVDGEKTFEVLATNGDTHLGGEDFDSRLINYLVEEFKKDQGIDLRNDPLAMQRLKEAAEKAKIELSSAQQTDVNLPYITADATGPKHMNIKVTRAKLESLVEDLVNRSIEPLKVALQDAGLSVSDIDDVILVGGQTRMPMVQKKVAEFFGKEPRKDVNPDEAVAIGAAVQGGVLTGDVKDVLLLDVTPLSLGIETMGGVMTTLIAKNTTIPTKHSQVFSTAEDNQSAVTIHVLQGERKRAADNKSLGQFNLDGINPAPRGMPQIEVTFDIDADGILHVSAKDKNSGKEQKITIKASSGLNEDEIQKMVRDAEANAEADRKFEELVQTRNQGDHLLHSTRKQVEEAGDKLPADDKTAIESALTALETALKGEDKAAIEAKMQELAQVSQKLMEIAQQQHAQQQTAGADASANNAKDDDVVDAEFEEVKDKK

**Q.** For “B9-23: insulin peptide identified as an immunodominant epitope of autoimmune T-cell reactivity in type 1 diabetes (SHLVEALYLVCGERG; ends and bridges not checked; UniProt P01308 33-47, looked up, fragment) [Peptide B9-23]”, which “immunodominance in autoimmune T-cell reactivity (in words)” value [1] is on record?
**A.** immunodominant epitope of autoimmune T-cell reactivity in type 1 diabetes

**Q.** Which Kd (DnaK) does the source give for LVEALYLVCGERG [Peptide B11-23] here?
**A.** 2200 ± 400 nM

**Q.** For “SHAMAPVLYLQDK [Control peptide (sigma32 aa192-204)]”, which Kd (DnaK) is on record?
**A.** 500 ± 100 nM

**Q.** Which Kd (DnaK) does the source give for VCGERGFFYTPKT [Peptide B18-30] here?
**A.** 51900 ± 12800 nM
